Experimental data: US20220133767A1, “TARGETING MICRORNAS TO OVERCOME DRUG TOLERANCE AND RESISTANCE” (Beth Israel Deaconess Medical Center, Inc., priority 2019, published 2022)
Entries after “also recorded” stand apart in the source; their conditions may differ.

Experiments:
[1] = tested on: pseudohypoxia genes in H1975 cells; assay: qRT-PCR analysis of hypoxia (pseudohypoxia) gene expression; assay type: cell-based, human
Description: Transfection by LNAs in vitro. Tumor cells were plated at 2,000 cells in complete growth medium in a 96 well plate to reach 50-60% confluence. 0˜120 nM of fluorescein-conjugated LNA anti-miR-147b (Sequence: […]; SEQ ID NO: 890) (Cat #4100977-011) or negative control (Sequence: TAACACGTCTATACGCCCA; SEQ ID NO: 891) (Cat #199006-011, Exiqon) with PureFection (System Biosciences) were applied for transfection. The transfected cells were harvested after culturing for 48 and 72 hours.

[2] = tested on: HCC827 cells
Description: (§1) Compound Treatment. Cell viability experiments were performed in 96-well format using opaque white plates (Corning). For 2D monolayer cell cultures and organoids, cells were plated into 96-well plates with 100-2000 cells per well in three-four replicates on day 0. Twenty-four hours after seeding, cells or organoids were exposed to compounds at indicated concentrations for 72 hours. Cellular ATP levels (as a surrogate for viability) were measured using CeliTiter-Glo (Cat #G7570, Promega) or CeliTiter-Glo 3D (Cat #G9681, Promega). For co-treatment experiments, spent medium was removed 24 hours after cell seeding and replaced with medium containing a single concentration of the modulator of interest (for example, osimertinib).
(§2) Lentiviral-mediated miRNA and VHL Overexpression or Knockdown Infection.

[3] = tested on: H1975 cells; assay: Cell viability of H1975 cells with HIF1A or EPAS1 knockdown or HIF1A A588T treated with osimertinib; assay type: cell-based, human; conditions: 3 days
Description: HIF1A and EPAS1 shRNAs and cDNA transfection. H1975 cells were seeded in a 6-well plate at 100,000 cells per well one day prior to transfection. A mixture of 2.5 μg pGFP-C-shLenti vector targeting HIF1A (OrGene, Cat #320380), EPAS1 (OriGene, Cat #TL315484), scrambled negative control (Cat #TR30021), lentiviral vector targeting HIF1A mutantA588T (OrGene, Cat #RC402571), control vector and 7.5 μL of PureFection (System Biosciences, Cat #LV750A-1) were used for transfection. The transfected cells were selected and maintained in 0.5 μg/ml puromycin (for shRNAs) or 600 μg/ml neomycin (for HIF1A A5887) in DMEM containing with 10% FBS for 9 days. Then the stable cells were passaged into 96-well plate at 3,000 cells per well followed by treatment with 100 nM osimertinib for 3 days. hsa-HIF1A targeting sequences: shRNA 1: […] (SEQ ID NO: 892), shRNA 2: […] (SEQ ID NO: 893), shRNA 3: […] (SEQ ID NO: 894), shRNA 4: […] (SEQ ID NO: 895). hsa-EPAS1 targeting sequences: shRNA 1: […] (SEQ ID NO: 896), shRNA 2: […] (SEQ ID NO: 897), shRNA 3: […] (SEQ ID NO: 898), shRNA 4: […] (SEQ ID NO: 899).

[4] = tested on: H1975 organoids; assay: Organoid number after lentiviral miR-147b inhibition and/or osimertinib; assay type: cell-based, human
Description: (§3) The plate was incubated for 20 minutes at 37° C. followed by adding 100 μl complete growth media. […] The media was changed every three days in 24 days. The organoids were photographed with a microscope (Evos Fla., Life Technology) and their size was measured by ImageJ.
as §2

[5] = tested on: PDX_LU_10 organoids; assay: Pretreatment response on lung PDX organoids (organoid size); assay type: cell-based, human
Description: Patient-derived Xenograft Tumor Specimens. Tumor samples from patient-derived xenografts (PDXs) were generated at The Jackson Laboratory and the Yale Cancer Center by subcutaneous implantation of previously passaged tumors in up to 5 female NSG mice. When tumor samples reached 1000 mm^3 they were shipped to the laboratory in frozen media of DMEM with 90% FBS and 10% DMSO in dry ice. Samples were washed with cold phosphate buffer saline (PBS) with antibiotics (Sigma-Aldrich, St. Louis, Mo.) three times, chopped with a sterile blade, and incubated in 0.001% deoxyribonuclease (DNase) (Sigma-Aldrich, St. Louis, Mo.), 1 mg/ml collagenase/dispase (Roche, Indianapolis, Ind.), 200 U/ml penicillin, 200 μg/ml streptomycin, 0.5 μg/ml amphotericin B (2% antibiotics, Sigma) in DMEM/F12 medium (GIBCO, Grandlsland, N.Y.) at 37° C. water bath for 3 hours with intermittent shaking. After incubation, the suspensions were repeatedly triturated, passed through 70 μm and 40 μm cell-strainers (BD Falcon, San Jose, Calif.), and centrifuged at 122 g for 5 minutes at 4° C. Cells were resuspended in red blood cell lysis buffer (eBioscience, San Diego, Calif.) for 4 minutes at room temperature with intermittent shaking, before resuspension in serum-free medium. After lysis, cell viability was evaluated by trypan blue dye exclusion.
as §3
Transfection by LNAs in vitro. Tumor cells were plated at 2,000 cells in complete growth medium in a 96 well plate to reach 50-60% confluence. […] The transfected cells were harvested after culturing for 48 and 72 hours.

[6] = tested on: H1975 cells; assay: Cell viability of osimertinib-treated H1975 cells co-incubated with SDH inhibitor dimethyl malonate; assay type: cell-based, human; conditions: 100 nM osimertinib co-incubated with 0, 0.03, 0.1 mM DMM for 3 days
Description: as §1

[7] = tested on: PC9 cells; assay: Single cell clonogenicity / frequency of drug-tolerant clones; conditions: 0.1, 0.4 and 2 μM gefitinib (all three groups), 14 days, vehicle 8.3%±0.7%
[8] = tested on: H1975 organoids; assay: Fractional viability of H1975 organoids treated with osimertinib, LNA miR-147b inhibitor, DMOG, R59949 or combinations for 14 days; assay type: cell-based, human
Description: (§4) For 3D organoid formation, single-cell suspensions (2000 cells/well/20 μl) were co-plated with geltrex (25 μl) in 96-well non-treated clear plates (Corning, cat #08-772-53). The plate was incubated for 20 minutes at 37° C. followed by adding 100 μl complete growth media. The complete growth media was advanced DMEM/F12 with glutamax (1×), HEPES (1×), 1.25 mM N-Acetylcysteine, 10 mM Nicotinamide, 10 μM Forskolin, B27 (1×), 5 ng/ml Noggin, 100 ng/ml FGF10, 20 ng/ml FGF2, 50 ng/ml EGF, 10 ng/ml PDGFA, 10 ng/ml FGF7, 1% penicillin-streptomycin, and 10 μM Y-27632. Y-27632 was used only for the initial three days because Y27632 is a rock inhibitor preventing apoptosis of single cells (Watanabe et al., Nat. Biotechnol. 25(6):681-686, 2007). PDGFA and FGF7 were not used until day 7 in organoid cultures because they are important for alveolarization during late lung development (Padela et al., Pediatr. Res. 63(3):232-8, 2008; Bostrom et al., Cell 85(6):863-873, 1996). FGF10 is essential for maintenance of lung progenitor cells and branching morphogenesis as well as tissue homeostasis in the adult lung (Sekine et al., Nat. Genet. 21(1):138-141, 1999). […] The organoids were photographed with a microscope (Evos Fla., Life Technology) and their size was measured by ImageJ. […]

[9] = tested on: H1975 organoids; assay: Osimertinib treatment response (cell viability) on H1975 organoids transfected with LNA miR-147b inhibitor; assay type: cell-based, human; conditions: 120 nM LNA miR-147b inhibitor
Description: as §4

O=c1c2ccccc2[nH]c(=S)n1CCN1CCC(=C(c2ccc(F)cc2)c2ccc(F)cc2)CC1 [R59949]
pseudohypoxia gene levels reduced by LNA-miR-147b inhibitor, on co-treatment with R59949 ([1]; H1975 cells, 90 nM LNA miR-147b inhibitor + 30 μM R59949, three days): further inhibited
expression of pseudohypoxia genes ([1]; H1975 cells, single dose of 30 μM R59949 vs vehicle): downregulation

C=CC(=O)Nc1cc(Nc2nccc(-c3cn(C)c4ccccc34)n2)c(OC)cc1N(C)CCN(C)C [osimertinib]
enhancement of drug-tolerance at the half-maximum inhibitory concentration (IC50) by enforced overexpression of miR-147b [2]: 60 fold
increase of drug-tolerance towards osimertinib upon overexpression of HIF1A A588T ([3]; 100 nM osimertinib): up to two-fold
increase of cell sensitivity towards osimertinib upon HIF1A knockdown ([3]; lentiviral shRNAs against HIF1A, 100 nM osimertinib): up to 2.6 fold
drug sensitivity towards osimertinib upon HIF2A knockdown ([3]; lentiviral shRNAs against HIF2A/EPAS1, 100 nM osimertinib): did not change
decrease of total number of organoids compared with the control group [4]: two-fold
decrease of size of the tumor organoids ([5]; 25 nM osimertinib on day 1 and 4, day 6): 50%
increase (recovery) of organoid size ([5]; 25 nM osimertinib on day 1 and 4, day 14): 40%

COC(=O)CC(=O)OC [DMM, dimethyl malonate]
drug-tolerance to osimertinib (cell viability) [6]: promotes drug-tolerance; also recorded: effectively rescued

COc1cc2ncnc(Nc3ccc(F)c(Cl)c3)c2cc1OCCCN1CCOCC1 [gefitinib]
frequency of colony formation [7]: 3.6%±0.3

LNA miR-147b inhibitor: fluorescein-conjugated LNA anti-miR-147b, sequence AGCAGAAGCATTTCCGCACA (SEQ ID NO: 890), Cat #4100977-011 (LNA-modified, fluorescein conjugated, pattern and position not given here)
osimertinib-tolerance (fractional viability) ([8]; osimertinib 25 nM + LNA-anti147b 90 nM): reduced osimertinib-tolerance
expression levels of pseudohypoxia genes ([1]; H1975 cells, 90 nM LNA miR-147b inhibitor, three days, vs scrambled control): reduced expression levels
decrease of osimertinib-tolerance compared with control cells ([5]; 90 nM LNA miR-147b inhibitor on day 0 and day 2 + 25 nM osimertinib, day 8): 80%
PDX organoids volume increase, as % of that in control cells with the single agent of osimertinib ([5]; LNA miR-147b inhibitor pretreatment + osimertinib, day 8 to day 14): no more than 10%
decrease of IC50 for osimertinib / increase of sensitivity of drug-tolerant organoids to osimertinib, compared to scrambled control [9]: 30 fold

COC(=O)CNC(=O)C(=O)OC [DMOG, dimethyloxaloylglycine]
osimertinib-tolerance (fractional viability) on co-treatment with DMOG ([8]; osimertinib 25 nM, LNA-anti147b 90 nM, DMOG 10 μM): rescued reduced osimertinib-tolerance
pseudohypoxia gene levels reduced by miR-147b knockdown, on co-treatment with DMOG ([1]; H1975, 90 nM LNA miR-147b inhibitor + 10 μM DMOG): rescued significantly
expression of pseudohypoxia genes ([1]; H1975, single dose of 10 μM DMOG vs vehicle): upregulated expression
